Data: ChEMBL document CHEMBL1201862, “PubChem BioAssay data set” (2004)
Activity calls are given as the source filed them.

Experiments:
[1] = biological target: Peroxisome proliferator-activated receptor gamma/Nuclear receptor coactivator 3 (Homo sapiens, UniProt P37231); experiment: (§1) TR-FRET dose response biochemical High Throughput Screening assay for agonists of the steroid receptor coactivator 3 (SRC-3) recruitment by the peroxisome proliferator-activated receptor gamma (PPAR gamma): non-selective agonists. [Related pubchem assays: 1301 (Confirmation screen.), 1048 (Primary screen.)]; type: functional
Chain of Peroxisome proliferator-activated receptor gamma/Nuclear receptor coactivator 3 (P37231 whole entry): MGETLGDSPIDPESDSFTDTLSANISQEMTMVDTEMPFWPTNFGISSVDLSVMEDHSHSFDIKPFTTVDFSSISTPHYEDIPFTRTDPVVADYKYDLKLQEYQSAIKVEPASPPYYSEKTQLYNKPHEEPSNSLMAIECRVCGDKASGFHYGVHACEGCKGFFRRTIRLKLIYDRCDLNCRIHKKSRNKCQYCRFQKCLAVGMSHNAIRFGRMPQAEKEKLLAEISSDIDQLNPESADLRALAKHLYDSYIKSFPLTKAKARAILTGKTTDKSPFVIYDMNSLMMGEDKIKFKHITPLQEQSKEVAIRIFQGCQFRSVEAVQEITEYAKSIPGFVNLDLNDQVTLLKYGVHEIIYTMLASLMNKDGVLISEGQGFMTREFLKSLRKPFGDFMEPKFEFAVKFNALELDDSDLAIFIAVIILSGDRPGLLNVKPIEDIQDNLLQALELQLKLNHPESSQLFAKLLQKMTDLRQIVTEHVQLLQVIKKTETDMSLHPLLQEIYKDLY
Chain of Peroxisome proliferator-activated receptor gamma/Nuclear receptor coactivator 3 (Q9Y6Q9 whole entry, further chain): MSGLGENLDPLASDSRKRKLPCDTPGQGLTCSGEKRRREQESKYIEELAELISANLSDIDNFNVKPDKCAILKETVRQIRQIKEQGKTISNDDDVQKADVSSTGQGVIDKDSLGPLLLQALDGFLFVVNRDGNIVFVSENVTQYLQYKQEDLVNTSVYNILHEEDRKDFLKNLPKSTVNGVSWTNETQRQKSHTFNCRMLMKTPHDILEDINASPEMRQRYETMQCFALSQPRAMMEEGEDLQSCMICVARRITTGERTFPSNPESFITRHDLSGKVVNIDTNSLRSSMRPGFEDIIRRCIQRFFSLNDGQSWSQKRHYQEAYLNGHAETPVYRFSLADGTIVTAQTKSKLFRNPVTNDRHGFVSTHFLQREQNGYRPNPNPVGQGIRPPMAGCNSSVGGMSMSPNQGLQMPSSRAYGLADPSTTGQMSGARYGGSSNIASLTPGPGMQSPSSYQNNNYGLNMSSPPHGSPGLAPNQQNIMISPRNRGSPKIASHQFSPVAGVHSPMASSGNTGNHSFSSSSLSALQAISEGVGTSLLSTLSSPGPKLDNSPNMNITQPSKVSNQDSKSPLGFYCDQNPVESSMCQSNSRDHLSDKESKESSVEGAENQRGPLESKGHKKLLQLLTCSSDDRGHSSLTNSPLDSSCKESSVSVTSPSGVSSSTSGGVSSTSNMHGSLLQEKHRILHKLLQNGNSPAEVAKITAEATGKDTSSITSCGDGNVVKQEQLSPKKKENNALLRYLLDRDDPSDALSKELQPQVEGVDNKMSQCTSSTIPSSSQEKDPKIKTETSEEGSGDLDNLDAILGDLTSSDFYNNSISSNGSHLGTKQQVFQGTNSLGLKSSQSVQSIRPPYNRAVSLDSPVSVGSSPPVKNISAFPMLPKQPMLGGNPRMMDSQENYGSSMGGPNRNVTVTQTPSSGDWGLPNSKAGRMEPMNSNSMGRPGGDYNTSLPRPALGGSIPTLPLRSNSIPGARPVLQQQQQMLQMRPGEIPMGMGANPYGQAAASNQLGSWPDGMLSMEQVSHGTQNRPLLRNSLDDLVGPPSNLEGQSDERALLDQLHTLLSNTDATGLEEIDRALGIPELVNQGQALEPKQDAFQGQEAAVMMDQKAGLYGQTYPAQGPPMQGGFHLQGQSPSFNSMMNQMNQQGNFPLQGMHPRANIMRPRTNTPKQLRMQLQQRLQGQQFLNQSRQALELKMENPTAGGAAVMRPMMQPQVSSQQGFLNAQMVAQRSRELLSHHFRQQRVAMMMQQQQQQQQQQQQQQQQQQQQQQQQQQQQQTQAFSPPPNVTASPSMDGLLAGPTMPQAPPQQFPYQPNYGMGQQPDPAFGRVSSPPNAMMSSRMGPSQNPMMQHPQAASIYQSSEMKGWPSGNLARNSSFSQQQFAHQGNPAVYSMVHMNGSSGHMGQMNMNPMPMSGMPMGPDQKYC

[2] = biological target: Peroxisome proliferator-activated receptor gamma/Nuclear receptor coactivator 1 (Homo sapiens, UniProt P37231); experiment: as §1, with “1 (SRC-1)” for “3 (SRC-3)”, “assays (depositor defined):AID1300, AID1808, AID504735, AID631]” for “assays: 1301 (Confirmation screen.), 1048 (Primary screen.)]”; type: protein assay
[3] = biological target: Peroxisome proliferator-activated receptor gamma/Nuclear receptor coactivator 2 (Homo sapiens, UniProt P37231); experiment: TR-FRET dose response biochemical High Throughput Screening assay for agonists of the steroid receptor coactivator 2 (SRC-2) recruitment by the peroxisome proliferator-activated receptor gamma (PPAR gamma): non-selective agonists. [Related pubchem assays: 1297, 1032 ]; type: functional
Chain of Peroxisome proliferator-activated receptor gamma/Nuclear receptor coactivator 2 (P37231 whole entry): as the sequence (P37231 whole entry) above
Chain of Peroxisome proliferator-activated receptor gamma/Nuclear receptor coactivator 2 (Q15596 whole entry, further chain): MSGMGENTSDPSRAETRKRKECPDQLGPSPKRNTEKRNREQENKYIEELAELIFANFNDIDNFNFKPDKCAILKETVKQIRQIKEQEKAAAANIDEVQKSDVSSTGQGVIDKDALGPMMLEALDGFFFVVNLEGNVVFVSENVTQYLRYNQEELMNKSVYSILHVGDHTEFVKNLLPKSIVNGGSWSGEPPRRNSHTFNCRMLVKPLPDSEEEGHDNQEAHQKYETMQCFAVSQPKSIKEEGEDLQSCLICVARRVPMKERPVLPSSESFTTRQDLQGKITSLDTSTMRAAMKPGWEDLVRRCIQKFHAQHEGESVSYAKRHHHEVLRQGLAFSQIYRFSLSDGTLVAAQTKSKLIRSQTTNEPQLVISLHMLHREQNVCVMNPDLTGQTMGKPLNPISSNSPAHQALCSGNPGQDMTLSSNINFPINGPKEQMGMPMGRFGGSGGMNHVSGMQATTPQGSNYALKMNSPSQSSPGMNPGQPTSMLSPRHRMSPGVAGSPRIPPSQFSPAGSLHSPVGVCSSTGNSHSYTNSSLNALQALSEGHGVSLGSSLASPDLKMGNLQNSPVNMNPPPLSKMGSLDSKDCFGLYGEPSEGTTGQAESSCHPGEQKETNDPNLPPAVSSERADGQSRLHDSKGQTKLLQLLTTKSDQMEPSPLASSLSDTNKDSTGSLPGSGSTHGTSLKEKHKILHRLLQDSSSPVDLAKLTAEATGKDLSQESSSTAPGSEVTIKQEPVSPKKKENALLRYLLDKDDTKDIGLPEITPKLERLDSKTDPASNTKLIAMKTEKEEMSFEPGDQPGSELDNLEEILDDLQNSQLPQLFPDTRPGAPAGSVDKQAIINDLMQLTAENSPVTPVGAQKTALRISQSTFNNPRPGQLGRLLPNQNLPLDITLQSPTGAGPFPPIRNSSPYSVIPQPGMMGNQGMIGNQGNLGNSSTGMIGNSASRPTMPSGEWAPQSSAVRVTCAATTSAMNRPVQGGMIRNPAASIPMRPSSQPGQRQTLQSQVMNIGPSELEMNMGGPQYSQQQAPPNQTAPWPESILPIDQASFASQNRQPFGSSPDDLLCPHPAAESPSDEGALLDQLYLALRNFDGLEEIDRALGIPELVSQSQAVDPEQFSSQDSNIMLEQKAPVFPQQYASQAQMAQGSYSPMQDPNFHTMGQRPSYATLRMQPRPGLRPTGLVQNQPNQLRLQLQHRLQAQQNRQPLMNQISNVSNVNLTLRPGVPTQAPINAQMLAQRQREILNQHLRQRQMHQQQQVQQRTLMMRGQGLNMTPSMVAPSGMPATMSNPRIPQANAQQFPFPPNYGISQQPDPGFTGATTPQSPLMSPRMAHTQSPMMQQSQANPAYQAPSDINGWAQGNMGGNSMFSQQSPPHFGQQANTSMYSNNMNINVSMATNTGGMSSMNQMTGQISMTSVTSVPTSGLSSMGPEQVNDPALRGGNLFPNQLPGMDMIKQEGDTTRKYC

[4] = test system: Streptococcus sp. 'group A'; experiment: growth inhibition of control SK(-) GAS strain, dose response, counter-screen for streptokinase expression inhibitor project, luminescence, kanamycin, BacTiterGlo, confirmation (AID 1900); type: functional, organism-based
Streptococcus = experiment: Group A Streptococcus viability loss, dose response, counter-screen for streptokinase expression inhibitor project, luminescence, BacTiterGlo (AID 1915); type: functional, organism-based;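 note: potency for reduction of bacterial viability or growth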
Streptokinase A = biological target: T1, Streptokinase A (Streptococcus pyogenes serotype M1, UniProt P10520); experiment: S. pyogenes streptokinase expression inhibitors, potency, dose response, plasminogen activation absorbance, OD405 (AID 1914); type: functional, Streptococcus pyogenes M1 GAS;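 note: secreted streptokinase activity via plasminogen activation per viability signal from cell pellet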
T1 sequence (P10520 whole entry): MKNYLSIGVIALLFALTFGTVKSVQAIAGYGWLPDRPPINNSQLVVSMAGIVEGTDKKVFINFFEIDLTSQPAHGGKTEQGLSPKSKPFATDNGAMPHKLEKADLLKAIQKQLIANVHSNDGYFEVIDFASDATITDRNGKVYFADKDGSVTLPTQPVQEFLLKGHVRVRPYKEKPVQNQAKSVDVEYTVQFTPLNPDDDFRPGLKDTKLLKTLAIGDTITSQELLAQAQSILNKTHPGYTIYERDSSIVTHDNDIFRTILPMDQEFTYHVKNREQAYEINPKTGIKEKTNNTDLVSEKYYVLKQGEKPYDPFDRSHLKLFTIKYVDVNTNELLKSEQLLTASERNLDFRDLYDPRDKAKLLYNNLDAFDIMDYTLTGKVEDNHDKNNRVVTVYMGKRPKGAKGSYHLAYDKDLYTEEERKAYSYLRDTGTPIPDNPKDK

[5] = biological target: G-protein coupled receptor 55 (Homo sapiens, UniProt Q9Y2T6); experiment: GPR55 agonists via beta-arrestin recruitment, primary screen, imaging, U2OS cells, beta-arrestin-GFP redistribution (AID 1961); type: functional
Estrogen receptor = biological target: T2, Estrogen receptor (Homo sapiens, UniProt P03372);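 note: potency for inhibiting coactivator peptide recruitment to the receptor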
T2 sequence (P03372 whole entry): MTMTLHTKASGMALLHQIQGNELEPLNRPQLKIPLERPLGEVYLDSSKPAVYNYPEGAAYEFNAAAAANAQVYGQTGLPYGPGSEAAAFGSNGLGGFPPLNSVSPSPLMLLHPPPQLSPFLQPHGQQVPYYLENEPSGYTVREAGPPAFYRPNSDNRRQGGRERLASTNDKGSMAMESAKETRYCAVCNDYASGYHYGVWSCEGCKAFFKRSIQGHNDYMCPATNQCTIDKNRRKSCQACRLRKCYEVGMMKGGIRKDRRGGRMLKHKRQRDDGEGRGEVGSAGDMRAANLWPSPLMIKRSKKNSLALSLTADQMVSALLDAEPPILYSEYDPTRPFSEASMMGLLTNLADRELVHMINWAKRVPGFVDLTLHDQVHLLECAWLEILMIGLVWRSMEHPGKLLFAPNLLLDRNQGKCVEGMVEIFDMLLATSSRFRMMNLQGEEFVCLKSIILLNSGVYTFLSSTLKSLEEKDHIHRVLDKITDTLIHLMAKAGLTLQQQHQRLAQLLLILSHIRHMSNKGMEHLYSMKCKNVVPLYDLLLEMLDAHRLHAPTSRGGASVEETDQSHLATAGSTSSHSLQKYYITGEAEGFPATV

[6] = cytotoxicity in KRAS-transformed pancreatic duct cells, primary screen, cell-based, fluorescence, HTS (AID 431); type: functional; conditions: Homo sapiens;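 note: cell line used: HPDE-C7K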
[7] = cytotoxicity in HPDE-C7 cells, cell-based, fluorescence, HTS (AID 430); type: functional; conditions: Homo sapiens
HEK293 [8] = experiment: cells; type: functional, cell-based; conditions: Homo sapiens
HEK293 [9] = experiment: NOD2 signaling inhibitors in MDP-stimulated cells, cell-based, uHTS, luminescence (AID 2001); type: functional; conditions: Homo sapiens
HEK293 [10] = experiment: cells; type: functional, cell-based; conditions: Homo sapiens; remark: listed apart in the source
[11] = biological target: Nucleotide-binding oligomerization domain-containing protein 2 (Homo sapiens, UniProt Q9HC29); experiment: NOD2 signaling inhibitors, cell-based, luminescence, uHTS, HEK293 (AID 1566); type: functional
Chain of Nucleotide-binding oligomerization domain-containing protein 2 (Q9HC29 whole entry, the tested form may be a part): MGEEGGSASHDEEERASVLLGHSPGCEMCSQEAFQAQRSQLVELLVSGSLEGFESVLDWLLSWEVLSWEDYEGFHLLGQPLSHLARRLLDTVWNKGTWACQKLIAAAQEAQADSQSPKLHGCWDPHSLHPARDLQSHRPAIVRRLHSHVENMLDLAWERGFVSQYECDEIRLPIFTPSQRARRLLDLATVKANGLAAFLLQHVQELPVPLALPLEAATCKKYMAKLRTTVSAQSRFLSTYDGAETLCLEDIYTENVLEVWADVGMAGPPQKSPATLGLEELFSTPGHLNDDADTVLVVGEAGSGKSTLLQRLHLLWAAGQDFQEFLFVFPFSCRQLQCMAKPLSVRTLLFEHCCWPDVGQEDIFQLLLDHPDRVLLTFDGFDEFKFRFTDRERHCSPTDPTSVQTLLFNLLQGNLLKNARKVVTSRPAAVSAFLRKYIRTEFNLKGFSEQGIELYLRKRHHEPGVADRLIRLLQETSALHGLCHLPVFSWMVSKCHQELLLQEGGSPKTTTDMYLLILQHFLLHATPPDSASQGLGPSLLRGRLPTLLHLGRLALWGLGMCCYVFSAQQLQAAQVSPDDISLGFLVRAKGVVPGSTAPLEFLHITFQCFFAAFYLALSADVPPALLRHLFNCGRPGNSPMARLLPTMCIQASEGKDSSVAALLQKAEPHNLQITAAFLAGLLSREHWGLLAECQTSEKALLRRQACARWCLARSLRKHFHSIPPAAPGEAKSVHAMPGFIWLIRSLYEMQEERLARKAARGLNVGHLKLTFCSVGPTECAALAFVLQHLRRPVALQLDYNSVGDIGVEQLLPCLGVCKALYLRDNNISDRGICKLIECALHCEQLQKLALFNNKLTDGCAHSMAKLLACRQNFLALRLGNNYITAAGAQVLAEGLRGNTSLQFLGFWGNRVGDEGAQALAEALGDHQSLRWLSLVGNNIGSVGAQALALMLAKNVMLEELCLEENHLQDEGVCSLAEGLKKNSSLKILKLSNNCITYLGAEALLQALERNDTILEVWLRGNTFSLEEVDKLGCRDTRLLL

HEK293 [12] = experiment: cells; type: functional, cell-based; conditions: Homo sapiens; remark: listed apart in the source
HEK293 [13] = experiment: NOD1 signaling inhibitors, primary screen, cell-based, luminescence, uHTS (AID 1578); type: functional; conditions: Homo sapiens
[14] = biological target: T3, Acyl-homoserine lactone acylase PvdQ (Pseudomonas aeruginosa (strain LESB58), UniProt Q9I194); experiment: P. aeruginosa PvdQ acylase inhibitors, dose response, biochemical, fluorescence, plate reader and imaging, cherry-picks (AID 493231)
T3 sequence (Q9I194 whole entry): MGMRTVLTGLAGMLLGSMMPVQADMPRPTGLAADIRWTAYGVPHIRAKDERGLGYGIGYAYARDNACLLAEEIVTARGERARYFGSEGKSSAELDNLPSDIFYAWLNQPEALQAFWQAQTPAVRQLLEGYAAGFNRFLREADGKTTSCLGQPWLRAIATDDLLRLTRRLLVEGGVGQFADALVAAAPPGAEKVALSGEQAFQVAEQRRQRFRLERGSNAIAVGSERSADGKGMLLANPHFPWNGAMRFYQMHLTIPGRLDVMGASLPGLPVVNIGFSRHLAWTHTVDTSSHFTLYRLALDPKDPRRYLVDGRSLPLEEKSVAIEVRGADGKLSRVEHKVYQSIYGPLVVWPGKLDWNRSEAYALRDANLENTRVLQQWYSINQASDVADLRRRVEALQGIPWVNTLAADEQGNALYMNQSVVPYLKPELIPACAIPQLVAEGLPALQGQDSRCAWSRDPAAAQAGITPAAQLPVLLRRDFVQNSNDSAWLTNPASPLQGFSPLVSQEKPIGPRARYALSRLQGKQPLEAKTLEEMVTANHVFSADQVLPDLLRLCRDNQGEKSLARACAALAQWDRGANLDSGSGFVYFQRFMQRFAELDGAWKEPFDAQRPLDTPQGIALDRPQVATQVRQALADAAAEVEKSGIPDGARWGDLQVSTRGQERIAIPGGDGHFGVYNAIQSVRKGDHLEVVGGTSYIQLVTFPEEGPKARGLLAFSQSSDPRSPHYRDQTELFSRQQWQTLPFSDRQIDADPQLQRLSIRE

In the case of `Cc1ccc2nc(NC(=O)CSc3ncnc4c3oc3ccccc34)sc2c1`, the EC50 [1] is reported as > 79.4 µM (not active), the EC50 [2] is reported as > 79.4 µM (inactive) and the EC50 [3] is reported as > 79.4 µM (not active).
For `CSc1ccccc1-c1nnc(S)o1`, the EC50 [1] was > 79.4 µM (not active), the EC50 [4] was > 150 µM (not active) and the EC50 [2] was 22.3 µM (inactive). For the same molecule, the EC50 (Streptococcus) was > 150 µM (not active), the EC50 [3] was 4.77 µM (active) and the EC50 (Streptokinase A) was > 150 µM (not active).
For `Cc1ccc(-c2nn3c(C)nnc3s2)cc1NC(=O)c1ccc(-c2cccc(Cl)c2)o1`, the EC50 [5] was 17.7 µM (inactive), the IC50 (Estrogen receptor) was > 50 µM (not active) and the EC50 [6] was 17.7 µM (active). For the same molecule, the EC50 [7] was 15.4 µM (active).
In the case of `CCc1c(C)nc2ccc(Br)cc2c1SCCC#N`, the IC50 (HEK293 [8]) is reported as 1.29 µM (active), the IC50 (HEK293 [9]) is reported as 1.74 µM (active) and the IC50 (HEK293 [10]) is reported as > 20 µM (inactive). For the same molecule, the EC50 [11] was 3.84 µM (active), the IC50 (HEK293 [12]) was > 20 µM (inactive) and the EC50 (HEK293 [13]) was 3.05 µM (active).
In the case of `CCOC(=O)c1ccc(-c2ccc(CO)o2)cc1`, the AC50 [14] is reported as 11.6 µM (active).
